According to patent US20250134874A1, “PHARMACEUTICAL FORMULATIONS COMPRISING 3-({[(4R)-7-{METHYL[4-(PROPAN-2-YL)PHENYL]AMINO}-3,4-DIHYDRO-2H-1-BENZOPYRAN-4-YL]METHYL}AMINO)PYRIDINE-4-CARBOXYLIC ACID” (TACHYON THERAPEUTICS, INC., priority 2021, published 2025):

System: 301 cancer cell lines from different tumor types (OncoPanel; HD Biosciences)
Experiment: 2D cell viability inhibition assay (CellTiter-Glo) in cancer cell line panel
Type: cell-based
Conditions: Homo sapiens
Description: In a larger screening study, compound 1 was evaluated across a broad cancer cell line panel (OncoPanel; HD Biosciences) composed of 301 cancer cell lines from different tumor types.
2D cell viability inhibition assays were performed in multiwell plates seeded with cells from the panel. After seeding, the plates were cultured overnight in a humidified incubator at 37° C. to promote adherence. Assays were initiated in individual wells by adding either DMSO as a vehicle control, growth media as a blank, or serially diluted compound 1 (10 μM to 0.0005 μM with 1:3 serial dilution). Cultures were incubated for 168 hours after which the number of viable cells in each test well was assessed using the CellTiter-Glo® Luminescent Cell Viability Assay. Luminescence readouts were performed using an EnVision® Multilabel Reader and the compound 1 readouts were normalized to the DMSO control readouts, expressed as a percent of the control. Outliers were flagged out by visual inspection. Percent of control was plotted against the corresponding compound 1 concentration and the absolute IC50 value was determined using four-parameter logistic non-linear regression as the concentration where inhibition was 50% of the control. For maximum inhibition <50%, the absolute IC50 was reported as >10. In addition to EC50 and IC50, AUC was determined and was normalized to the area corresponding to theoretical no-inhibition (the rectangular area defined by the compound dose range and 0 to 100 in y). Emax was recorded as the minimum in y with the compound dose range. For those cell lines where Emax>40, EC50 was manually set to 10 μM. A hierarchical clustering algorithm based on Euclidean distance between the standardized input values and “Ward.D” method as implemented in R hclust function was used to visualize the compound 1 cellular potency data. The sensitive/moderate/resistant calls for each cell line was determined by visually inspecting the resulting clustering dendrogram. All the analyses were done in R Core Team.

CC(C)c1ccc(N(C)c2ccc3c(c2)OCC[C@H]3CNc2cnccc2C(=O)O)cc1 [Compound 1, 3-({[(4R)-7-{methyl[4-(propan-2-yl)phenyl]amino}-3,4-dihydro-2H-1-benzopyran-4-yl]methyl}amino)pyridine-4-carboxylic acid] was tested, and the EC50 (KYSE-30, KYSE30 cell line) was ≥ 10000 nM, the IC50 (KYSE-30, KYSE30 cell line) was 2.43 nM and the IC50 (KYSE-70, 168 h, KYSE70, oesophagus, squamous cell carcinoma, 168 hours) was > 10000 nM. For the same compound, the EC50 (KYSE-150, KYSE150 cell line) was 4.41 nM, the IC50 (KYSE-150, KYSE150 cell line) was 5.1 nM and the EC50 (KYSE-270, KYSE270 cell line) was 5.11 nM. For the same compound, the IC50 (KYSE-270, KYSE270 cell line) was 5.35 nM, the EC50 (KYSE-410, KYSE410 cell line) was 5.47 nM and the IC50 (KYSE-410, KYSE410 cell line) was 8.25 nM. For the same compound, the EC50 (KYSE-510, KYSE510 cell line) was 3.42 nM, the IC50 (KYSE-510, KYSE510 cell line) was 3.4 nM and the IC50 (Kasumi 1, 168 h, KASUMI1, haematopoietic and lymphoid tissue, acute myeloid leukaemia, 168 hours) was > 10000 nM. It also gave an EC50 (LNCaP, LNCAP cell line) of 3.54 nM, an IC50 (LNCaP, LNCAP cell line) of 4.65 nM and an EC50 (LS-411N, LS411N cell line) of 16.8 nM. It also gave an IC50 (LS-411N, LS411N cell line) of 16.7 nM, an IC50 (LoVo, LOVO cell line) of 57.8 nM and an EC50 (Lu-65, LU65 cell line) of 7.19 nM. For the same compound, the IC50 (Lu-65, LU65 cell line) was 10.6 nM, the IC50 (Lu-99, 168 h, LU99, lung, large cell carcinoma, 168 hours) was > 10000 nM and the EC50 (MC116, MC116 cell line) was 5.21 nM. For the same compound, the IC50 (MC116, MC116 cell line) was 4.6 nM, the IC50 (MCF7, MCF7 cell line) was 435 nM and the IC50 (MDA-MB-157, 168 h, MDAMB157, breast, ductal carcinoma, 168 hours) was > 10000 nM. For the same compound, the IC50 (MDA-MB-175-VII, 168 h, MDAMB175VII, breast, ductal carcinoma) was > 10000 nM, the IC50 (MDA-MB-231, 168 h, MDAMB231, breast, NS, 168 hours) was > 10000 nM and the IC50 (MDA-MB-361, 168 h, MDAMB361, breast, NS, 168 hours) was > 10000 nM. For the same compound, the IC50 (MDA-MB-415, 168 h, MDAMB415, breast, NS, 168 hours) was > 10000 nM, the IC50 (MDA-MB-436, 168 h, MDAMB436, breast, NS, 168 hours) was > 10000 nM and the EC50 (MDA-MB-453, MDAMB453 cell line) was 8.03 nM. The IC50 (MDA-MB-453, MDAMB453 cell line) was 10.4 nM, the IC50 (MDA-MB-468, 168 h, MDAMB468, breast, NS, 168 hours) was > 10000 nM and the EC50 (MES-SA, MESSA cell line) was 9 nM. For the same compound, the IC50 (MES-SA, MESSA cell line) was 14.3 nM, the EC50 (MIA PaCa-2, MIAPACA2 cell line) was 5.28 nM and the IC50 (MIA PaCa-2, MIAPACA2 cell line) was 7.02 nM. For the same compound, the EC50 (MKN-1, MKN1 cell line) was 4.33 nM, the IC50 (MKN-1, MKN1 cell line) was 5.75 nM and the EC50 (MKN-45, MKN45 cell line) was 11 nM. The IC50 (MKN-45, MKN45 cell line) was 13.5 nM, the EC50 (MOLT-4, MOLT4 cell line) was 0.508 nM and the IC50 (MOLT-4, MOLT4 cell line) was 1.25 nM. For the same compound, the EC50 (MV4-11, MV411 cell line) was 3.92 nM, the IC50 (MV4-11, MV411 cell line) was 4.02 nM and the IC50 (Malme-3M, 168 h, MALME3M, skin, NS) was > 10000 nM. The IC50 (MeWo, 168 h, skin, NS) was > 10000 nM, the EC50 (NCI-H23, NCIH23 cell line) was 37.7 nM and the IC50 (NCI-H23, NCIH23 cell line) was 42.7 nM. For the same compound, the EC50 (NCI-H69, NCIH69 cell line) was 7.14 nM, the IC50 (NCI-H69, NCIH69 cell line) was 7.09 nM and the EC50 (NCI-H82, NCIH82 cell line) was 3.31 nM. It also gave an IC50 (NCI-H82, NCIH82 cell line) of 3.54 nM, an EC50 (NCI-H209, NCIH209 cell line) of 1.48 nM and an IC50 (NCI-H209, NCIH209 cell line) of 1.31 nM. The EC50 (NCI-H358, NCIH358 cell line) was 3.05 nM, the IC50 (NCI-H358, NCIH358 cell line) was 6.57 nM and the IC50 (NCI-H441, 168 h, NCIH441, lung, adenocarcinoma, 168 hours) was > 10000 nM. It also gave an EC50 (NCI-H446, NCIH446 cell line) of 14.5 nM, an IC50 (NCI-H446, NCIH446 cell line) of 119 nM and an EC50 (NCI-H460, NCIH460 cell line) of 11.1 nM. It also gave an IC50 (NCI-H460, NCIH460 cell line) of 11.6 nM, an EC50 (NCI-H508, NCIH508 cell line) of 9.16 nM and an IC50 (NCI-H508, NCIH508 cell line) of 10.2 nM. It also gave an EC50 (NCI-H520, NCIH520 cell line) of 5.06 nM, an IC50 (NCI-H520, NCIH520 cell line) of 5.9 nM and an EC50 (NCI-H522, NCIH522 cell line) of 11.5 nM. The IC50 (NCI-H522, NCIH522 cell line) was 17.4 nM, the EC50 (NCI-H524, NCIH524 cell line) was 4.98 nM and the IC50 (NCI-H524, NCIH524 cell line) was 6.85 nM. For the same compound, the IC50 (NCI-H596, 168 h, NCIH596, lung, mixed adenosquamous carcinoma, 168 hours) was > 10000 nM, the EC50 (NCI-H647, NCIH647 cell line) was 6.04 nM and the IC50 (NCI-H647, NCIH647 cell line) was 9.84 nM. It also gave an EC50 (NCI-H661, NCIH661 cell line) of 9.06 nM, an IC50 (NCI-H661, NCIH661 cell line) of 9.73 nM and an EC50 (NCI-H716, NCIH716 cell line) of 5.77 nM. It also gave an IC50 (NCI-H716, NCIH716 cell line) of 9.51 nM, an EC50 (NCI-H929, NCIH929 cell line) of 20.6 nM and an IC50 (NCI-H929, NCIH929 cell line) of 34.5 nM. For the same compound, the EC50 (NCI-H1048, NCIH1048 cell line) was 0.508 nM, the IC50 (NCI-H1048, NCIH1048 cell line) was 0.706 nM and the EC50 (NCI-H1092, NCIH1092 cell line) was 3.93 nM. It also gave an IC50 (NCI-H1092, NCIH1092 cell line) of 7.16 nM, an EC50 (NCI-H1155, NCIH1155 cell line) of 0.884 nM and an IC50 (NCI-H1155, NCIH1155 cell line) of 0.765 nM. The EC50 (NCI-H1299, NCIH1299 cell line) was 5.38 nM, the IC50 (NCI-H1299, NCIH1299 cell line) was 7.5 nM and the EC50 (NCI-H1355, NCIH1355 cell line) was ≥ 10000 nM. For the same compound, the IC50 (NCI-H1355, NCIH1355 cell line) was 20.6 nM, the IC50 (NCI-H1395, 168 h, NCIH1395, lung, adenocarcinoma, 168 hours) was > 10000 nM and the EC50 (NCI-H1436, NCIH1436 cell line) was ≥ 10000 nM. The IC50 (NCI-H1436, NCIH1436 cell line) was 8.75 nM, the EC50 (NCI-H1437, NCIH1437 cell line) was 9.48 nM and the IC50 (NCI-H1437, NCIH1437 cell line) was 13.1 nM. For the same compound, the IC50 (NCI-H1563, 168 h, NCIH1563, lung, adenocarcinoma, 168 hours) was > 10000 nM, the IC50 (NCI-H1573, 168 h, NCIH1573, lung, adenocarcinoma, 168 hours) was > 10000 nM and the EC50 (NCI-H1623, NCIH1623 cell line) was 8.13 nM. The IC50 (NCI-H1623, NCIH1623 cell line) was 18.9 nM, the IC50 (NCI-H1650, 168 h, NCIH1650, lung, bronchioloalveolar adenocarcinoma, 168 hours) was > 10000 nM and the EC50 (NCI-H1666, NCIH1666 cell line) was 0.508 nM. For the same compound, the IC50 (NCI-H1666, NCIH1666 cell line) was 1.17 nM, the EC50 (NCI-H1694, NCIH1694 cell line) was 0.508 nM and the IC50 (NCI-H1694, NCIH1694 cell line) was 1.75 nM. The EC50 (NCI-H1703, NCIH1703 cell line) was 4.88 nM, the IC50 (NCI-H1703, NCIH1703 cell line) was 8.05 nM and the IC50 (NCI-H1734, NCIH1734 cell line) was > 10000 nM. For the same compound, the IC50 (NCI-H1755, 168 h, NCIH1755, lung, adenocarcinoma, 168 hours) was > 10000 nM, the EC50 (NCI-H1793, NCIH1793 cell line) was 8.36 nM and the IC50 (NCI-H1793, NCIH1793 cell line) was 15.3 nM. For the same compound, the EC50 (NCI-H1836, NCIH1836 cell line) was 4.88 nM, the IC50 (NCI-H1836, NCIH1836 cell line) was 6.07 nM and the IC50 (NCI-H1838, 168 h, NCIH1838, lung, non-small cell carcinoma, 168 hours) was > 10000 nM. The EC50 (NCI-H1930, NCIH1930 cell line) was 6.62 nM and the IC50 (NCI-H1930, NCIH1930 cell line) was 20 nM.
